According to ChEMBL document CHEMBL3865829 (Eur J Med Chem, 2016):

What was measured:
Mus musculus [1] = assay: Toxicity in nude BALB/c mouse xenografted with human A549 cells assessed as mortality at 10 mg/kg, ig administered via oral gavage once daily for 14 consecutive days measured on day 30; format: organism-based; conditions: in vivo
Mus musculus [2] = assay: Toxicity in nude BALB/c mouse xenografted with human A549 cells assessed as body weight at 10 mg/kg, ig administered via oral gavage once daily for 14 consecutive days measured on day 18 (reference value: 27.75 +/- 1.41 g); format: organism-based; conditions: in vivo
[3] = Antitumor activity against human A549 cells xenografted in BALB/c nude mouse assessed as tumor volume at 10 mg/kg, ig administered via oral gavage once daily for 14 consecutive days measured on day 11 (reference value: 1327.66 +/- 404.92 mm3); format: functional
[4] = Antitumor activity against human A549 cells xenografted in BALB/c nude mouse assessed as tumor volume at 10 mg/kg, ig administered via oral gavage once daily for 14 consecutive days measured on day 4 (reference value: 419.55 +/- 104.72 mm3); format: functional
Mus musculus [5] = assay: Toxicity in nude BALB/c mouse xenografted with human A549 cells assessed as body weight at 10 mg/kg, ig administered via oral gavage once daily for 14 consecutive days measured on day 4 (reference value: 24.77 +/- 0.93 g); format: organism-based; conditions: in vivo
[6] = Time at which maximum plasma concentration stays above in vitro IC50 for human A549 cells in Sprague-Dawley rat at 20 mg/kg, po administered as single dose; format: ADME, organism-based; conditions: in vivo
[7] = Potency index, ratio of camptothecin GI50 to compound GI50 against human NCI60 cells; format: functional
Mus musculus [8] = assay: Toxicity in nude BALB/c mouse xenografted with human A549 cells assessed as body weight at 10 mg/kg, ig administered via oral gavage once daily for 14 consecutive days measured on day 8 (reference value: 25.66 +/- 1.04 g); format: organism-based; conditions: in vivo
[9] = Cmax in Sprague-Dawley rat at 2 mg/kg, iv by LCMS analysis; format: ADME, organism-based; parameters: dose 2 mg/kg, route intravenous; conditions: in vivo
A549 [10] = assay: Inhibition of PI3K in human A549 cells assessed as reduction in AKT phosphorylation at threonine308 residues after 30 mins by Western blot analysis; format: cell-based
Mus musculus [11] = assay: Toxicity in nude BALB/c mouse xenografted with human A549 cells assessed as body weight at 10 mg/kg, ig administered via oral gavage once daily for 14 consecutive days measured on day 1 (reference value: 24.38 +/- 0.76 g); format: organism-based; conditions: in vivo
[12] = AUC (0 to infinity) in Sprague-Dawley rat at 20 mg/kg administered via oral gavage as single dose by LCMS analysis; format: ADME, organism-based; parameters: dose 20 mg/kg, route oral, time infinity; conditions: in vivo
Mus musculus [13] = assay: Toxicity in nude BALB/c mouse xenografted with human A549 cells assessed as body weight at 10 mg/kg, ig administered via oral gavage once daily for 14 consecutive days measured on day 11 (reference value: 26.11 +/- 1.06 g); format: organism-based; conditions: in vivo
cells = conditions: Homo sapiens, HCT-116, 72 h
[14] = Antitumor activity against human A549 cells xenografted in BALB/c nude mouse assessed as tumor growth inhibition at 10 mg/kg, ig administered via oral gavage once daily for 14 consecutive days measured on day 30 relative to control; format: functional; conditions: 720 h, read-out: TGI
[15] = Antitumor activity against human Bel7404 cells xenografted in BALB/c nude mouse assessed as tumor growth inhibition at 10 mg/kg, ig administered via oral gavage once daily for 14 consecutive days measured on day 29; format: functional; conditions: BEL-7404, po, 696 h, read-out: TGI
[16] = Half life in rat microsomes; format: ADME, Microsome
[17] = Half life in Sprague-Dawley rat at 20 mg/kg administered via oral gavage as single dose by LCMS analysis; format: ADME, organism-based; conditions: in vivo
[18] = Antitumor activity against human Bel7404 cells xenografted in BALB/c nude mouse assessed as tumor volume at 10 mg/kg, ig administered via oral gavage once daily for 14 consecutive days measured on day 3 (reference value: 176.17 +/- 57.63 mm3); format: functional, BEL-7404
[19] = Antitumor activity against human A549 cells xenografted in BALB/c nude mouse assessed as tumor volume at 10 mg/kg, ig administered via oral gavage once daily for 14 consecutive days measured on day 15 (reference value: 2071.51 +/- 682.84 mm3); format: functional
[20] = Antitumor activity against human A549 cells xenografted in BALB/c nude mouse assessed as tumor volume at 10 mg/kg, ig administered via oral gavage once daily for 14 consecutive days measured on day 18 (reference value: 3045.91 +/- 854.27 mm3); format: functional
[21] = Antitumor activity against human Bel7404 cells xenografted in BALB/c nude mouse assessed as tumor volume at 10 mg/kg, ig administered via oral gavage once daily for 14 consecutive days measured on day 1 (reference value: 101.62 +/- 26.48 mm3); format: functional, BEL-7404
[22] = Oral bioavailability in Sprague-Dawley rat at 20 mg/kg administered via gavage as single dose by LCMS analysis; format: ADME, organism-based; conditions: in vivo
A549 [23] = assay: Antitumor activity against human A549 cells xenografted in BALB/c nude mouse assessed as tumor growth inhibition administered ig via oral gavage once daily for 14 consecutive days measured on day 30; format: functional, cell-based
[24] = Ratio of Cmax in Sprague-Dawley rat to IC50 for human A549 cells
[25] = Cytotoxicity against human A549 cells after 72 hrs by MTT assay; format: functional, cell-based; conditions: A549, 72 h
Mus musculus [26] = assay: Toxicity in nude BALB/c mouse xenografted with human A549 cells assessed as body weight at 10 mg/kg, ig administered via oral gavage once daily for 14 consecutive days measured on day 15 (reference value: 27.12 +/- 1.43 g); format: organism-based; conditions: in vivo
[27] = Antitumor activity against human Bel7404 cells xenografted in BALB/c nude mouse assessed as tumor volume at 10 mg/kg, ig administered via oral gavage once daily for 14 consecutive days measured on day 10 (reference value: 425.92 +/- 102.32 mm3); format: functional, BEL-7404
A549 [28] = assay: Inhibition of mTORC2 in human A549 cells assessed as reduction in AKT phosphorylation at serine473 residues after 30 mins by Western blot analysis; format: cell-based
[29] = Cmax in Sprague-Dawley rat at 20 mg/kg administered via oral gavage as single dose by LCMS analysis; format: ADME, organism-based; parameters: dose 20 mg/kg, route oral; conditions: in vivo
[30] = Potency index, ratio of paclitaxel GI50 to compound GI50 against human NCI60 cells; format: functional
[31] = Antitumor activity against human A549 cells xenografted in BALB/c nude mouse assessed as tumor volume at 10 mg/kg, ig administered via oral gavage once daily for 14 consecutive days measured on day 1 (reference value: 156.87 +/- 22.32 mm3); format: functional
[32] = Antitumor activity against human Bel7404 cells xenografted in BALB/c nude mouse assessed as tumor volume at 10 mg/kg, ig administered via oral gavage once daily for 14 consecutive days measured on day 14 (reference value: 589.54 +/- 162.22 mm3); format: functional, BEL-7404
[33] = Antitumor activity against human A549 cells xenografted in BALB/c nude mouse assessed as tumor volume at 10 mg/kg, ig administered via oral gavage once daily for 14 consecutive days measured on day 8 (reference value: 840.07 +/- 205.19 mm3); format: functional
[34] = AUC (0 to infinity) in Sprague-Dawley rat at 2 mg/kg, iv by LCMS analysis; format: ADME, organism-based; parameters: dose 2 mg/kg, time infinity, route intravenous; conditions: in vivo
[35] = Antitumor activity against human Bel7404 cells xenografted in BALB/c nude mouse assessed as tumor volume at 10 mg/kg, ig administered via oral gavage once daily for 14 consecutive days measured on day 17 (reference value: 747.40 +/- 169.75 mm3); format: functional, BEL-7404
[36] = Antitumor activity against human Bel7404 cells xenografted in BALB/c nude mouse assessed as tumor volume at 10 mg/kg, ig administered via oral gavage once daily for 14 consecutive days measured on day 7 (reference value: 284.68 +/- 74.36 mm3); format: functional, BEL-7404

COc1ncc(-c2ccc3nccc(-c4ccc(CN(C)C)cc4)c3c2)cc1NS(=O)(=O)c1ccc(F)cc1F
Activity (Mus musculus [1]): Non-Toxic | Activity (Mus musculus [2]): 23.92 g | Activity [3]: 432.38 mm3 | Activity [4]: 224.6 mm3 | Activity (Mus musculus [5]): 24.17 g | Time [6]: 0.5 h | RatioGI50 [7]: 2 | Activity (Mus musculus [8]): 24.23 g | Cmax [9]: 1000 ng/mL | inhibition (A549 [10]): Dose-dependent effect | Activity (Mus musculus [11]): 25.13 g | AUC(0-inf) [12]: 35600 ng·h/mL | Activity (Mus musculus [13]): 23.77 g | IC50 (cells): 3 nM | inhibition in vivo at 10 mg/kg [14]: 73.5% | inhibition in vivo at 10 mg/kg [15]: 70.6% | half-life [16]: 0.767 h | half-life [17]: 4.41 h | Activity [18]: 123.3 mm3 | Activity [19]: 536.2 mm3 | Activity [20]: 748.11 mm3 | Activity [21]: 90.39 mm3 | bioavailability [22]: 95% | TGI (A549 [23]): Dose-dependent effect | Ratio [24]: >2800 | IC50 [25]: 4.4 nM | Activity (Mus musculus [26]): 23.42 g | Activity [27]: 152.31 mm3 | inhibition (A549 [28]): Dose-dependent effect | Cmax [29]: 7120 ng/mL | RatioGI50 [30]: 2 | Activity [31]: 149.23 mm3 | Activity [32]: 187.5 mm3 | Activity [33]: 330.06 mm3 | AUC(0-inf) [34]: 3740 ng·h/mL | Activity [35]: 220.21 mm3 | Activity [36]: 135.38 mm3
